Results from US8916573B2, “Quinazoline-2,4-dione derivatives” (Actelion Pharmaceuticals Ltd., priority 2011, dated 2014).
In brackets after ≈: the same amount, converted by molar mass.

System: S. aureus 29213
Assay: Bacterial growth minimal inhibitory concentrations (microdilution, cation-adjusted Mueller-Hinton Broth, CLSI M7-A7)
Format: cell-based
Conditions: Staphylococcus aureus, 29213; microdilution in cation-adjusted Mueller-Hinton Broth

| MIC | Compound |
| --- | --- |
| 0.031 µg/mL (≈ 0.0645 µM) | Cc1cccc2c1c(=O)n(CCC[C@H]1CN(c3ccc4c(c3)NC(=O)CS4)C(=O)O1)c(=O)n2C [Example 6, 1,5-dimethyl-3-{3-[(S)-2-oxo-3-(3-oxo-3,4-dihydro-2H-benzo[1,4]-thiazin-6-yl)-oxazolidin-5-yl]-propyl}-1H-quinazoline-2,4-dione] |
| 0.031 µg/mL (≈ 0.0619 µM) | Cn1c(=O)n(CCNC[C@H]2CN(c3ccc4c(n3)NC(=O)CO4)C(=O)O2)c(=O)c2cccc(Cl)c21 [Example 69, 8-chloro-1-methyl-3-(2-{[(S)-2-oxo-3-(3-oxo-3,4-dihydro-2H-pyrido[3,2-b][1,4]oxazin-6-yl)-oxazolidin-5-ylmethyl]-amino}-ethyl)-1H-quinazoline-2,4-dione] |
